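Test compounds were applied to cells in 96-well plates for 48 hours at 5 doses. GI50 = concentration required for 50% inhibition of growth. TGI denotes the concentration required for complete inhibition of growth.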
Columns and labels:
Assay in all cases: DTP human tumour cell line panel, 48 h
NCI-H226 lung = system: NCI-H226 lung
HOP-62 NSCLC = system: HOP-62 NSCLC
EKVX NSCLC = system: EKVX NSCLC
SK-OV-3 ovarian = system: SK-OV-3 ovarian
M14 melanoma = system: M14 melanoma
SK-MEL-5 melanoma = system: SK-MEL-5 melanoma
SW-620 colon = system: SW-620 colon
HT29 colon = system: HT29 colon
UACC-257 melanoma = system: UACC-257 melanoma
786-0 renal = system: 786-0 renal
OVCAR-5 ovarian = system: OVCAR-5 ovarian
CAKI-1 renal = system: CAKI-1 renal
UO-31 renal = system: UO-31 renal
HS 578T breast = system: HS 578T breast
SF-539 CNS = system: SF-539 CNS
COLO 205 colon = system: COLO 205 colon
NCI-H23 lung = system: NCI-H23 lung
HL-60(TB) leukemia = system: HL-60(TB) leukemia
NCI/ADR-RES ovarian = system: NCI/ADR-RES ovarian
OVCAR-4 ovarian = system: OVCAR-4 ovarian
SNB-75 CNS = system: SNB-75 CNS
NCI-H460 lung = system: NCI-H460 lung
MOLT-4 leukemia = system: MOLT-4 leukemia
T-47D breast = system: T-47D breast
RPMI-8226 leukemia = system: RPMI-8226 leukemia
SF-268 CNS = system: SF-268 CNS
A498 renal = system: A498 renal
RXF 393 renal = system: RXF 393 renal
TK-10 renal = system: TK-10 renal
DU-145 prostate = system: DU-145 prostate
A549 NSCLC = system: A549 NSCLC
SF-295 CNS = system: SF-295 CNS
CCRF-CEM leukemia = system: CCRF-CEM leukemia
PC-3 prostate = system: PC-3 prostate
SNB-19 CNS = system: SNB-19 CNS
U251 CNS = system: U251 CNS
HCT-15 colon = system: HCT-15 colon
ACHN renal = system: ACHN renal
KM12 colon = system: KM12 colon
SK-MEL-2 melanoma = system: SK-MEL-2 melanoma
K-562 leukemia = system: K-562 leukemia
OVCAR-8 ovarian = system: OVCAR-8 ovarian
MALME-3M melanoma = system: MALME-3M melanoma
BT-549 breast = system: BT-549 breast
UACC-62 melanoma = system: UACC-62 melanoma
HCC-2998 colon = system: HCC-2998 colon
MDA-MB-231 breast = system: MDA-MB-231 breast
LOX IMVI melanoma = system: LOX IMVI melanoma
HCT-116 colon = system: HCT-116 colon
SR leukemia = system: SR leukemia
OVCAR-3 ovarian = system: OVCAR-3 ovarian
SK-MEL-28 melanoma = system: SK-MEL-28 melanoma
HOP-92 NSCLC = system: HOP-92 NSCLC
MCF7 breast = system: MCF7 breast
IGROV1 ovarian = system: IGROV1 ovarian
NCI-H522 lung = system: NCI-H522 lung

Work on `CC(=O)C1CCC2C3CC=C4CC(SC(=N)N)CCC4(C)C3CCC12C` (configuration not stated) yielded a GI50 (NCI-H226 lung) of 2900 nM, a TGI (NCI-H226 lung) of 9.26 µM and a GI50 (HOP-62 NSCLC) of 1930 nM. The TGI (HOP-62 NSCLC) was 3.6 µM, the GI50 (EKVX NSCLC) was 1430 nM and the TGI (EKVX NSCLC) was 6.88 µM. The GI50 (SK-OV-3 ovarian) was 4.19 µM, the TGI (SK-OV-3 ovarian) was 18 µM and the GI50 (M14 melanoma) was 1460 nM. It also gave a TGI (M14 melanoma) of 2810 nM, a GI50 (SK-MEL-5 melanoma) of 1650 nM and a TGI (SK-MEL-5 melanoma) of 3.01 µM. The GI50 (SW-620 colon) was 1620 nM, the TGI (SW-620 colon) was 3.16 µM and the GI50 (HT29 colon) was 809 nM. It also gave a TGI (HT29 colon) of 2140 nM, a GI50 (UACC-257 melanoma) of 1690 nM and a TGI (UACC-257 melanoma) of 3.34 µM. It also gave a GI50 (786-0 renal) of 1640 nM, a TGI (786-0 renal) of 3.29 µM and a GI50 (OVCAR-5 ovarian) of 2430 nM. It also gave a TGI (OVCAR-5 ovarian) of 8.87 µM, a GI50 (CAKI-1 renal) of 1680 nM and a TGI (CAKI-1 renal) of 4.24 µM. It also gave a GI50 (UO-31 renal) of 2360 nM, a TGI (UO-31 renal) of 7.54 µM and a GI50 (HS 578T breast) of 2560 nM. The TGI (HS 578T breast) was 11.3 µM, the GI50 (SF-539 CNS) was 1870 nM and the TGI (SF-539 CNS) was 3.96 µM. The GI50 (COLO 205 colon) was 1600 nM, the TGI (COLO 205 colon) was 2940 nM and the GI50 (NCI-H23 lung) was 2020 nM. The TGI (NCI-H23 lung) was 5.34 µM, the GI50 (HL-60(TB) leukemia) was 1880 nM and the TGI (HL-60(TB) leukemia) was 4.19 µM. For the same compound, the GI50 (NCI/ADR-RES ovarian) was 2000 nM, the TGI (NCI/ADR-RES ovarian) was 5.28 µM and the GI50 (OVCAR-4 ovarian) was 1850 nM. It also gave a TGI (OVCAR-4 ovarian) of 4.8 µM, a GI50 (SNB-75 CNS) of 1580 nM and a TGI (SNB-75 CNS) of 4.15 µM. For the same compound, the GI50 (NCI-H460 lung) was 1580 nM, the TGI (NCI-H460 lung) was 3.09 µM and the GI50 (MOLT-4 leukemia) was 1780 nM. For the same compound, the TGI (MOLT-4 leukemia) was 4.19 µM, the GI50 (T-47D breast) was 2020 nM and the TGI (T-47D breast) was 4.85 µM. The GI50 (RPMI-8226 leukemia) was 1410 nM, the TGI (RPMI-8226 leukemia) was 3.33 µM and the GI50 (SF-268 CNS) was 3.11 µM. It also gave a TGI (SF-268 CNS) of 16.1 µM, a GI50 (A498 renal) of 1190 nM and a TGI (A498 renal) of 3.73 µM. The GI50 (RXF 393 renal) was 1660 nM, the TGI (RXF 393 renal) was 3.63 µM and the GI50 (TK-10 renal) was 1690 nM. The TGI (TK-10 renal) was 3.17 µM, the GI50 (DU-145 prostate) was 3.13 µM and the TGI (DU-145 prostate) was 10.3 µM. The GI50 (A549 NSCLC) was 1820 nM, the TGI (A549 NSCLC) was 3.61 µM and the GI50 (SF-295 CNS) was 1490 nM. For the same compound, the TGI (SF-295 CNS) was 2990 nM, the GI50 (CCRF-CEM leukemia) was 1790 nM and the TGI (CCRF-CEM leukemia) was 4.26 µM. For the same compound, the GI50 (PC-3 prostate) was 1550 nM, the TGI (PC-3 prostate) was 4.2 µM and the GI50 (SNB-19 CNS) was 3.12 µM. The TGI (SNB-19 CNS) was 32.1 µM.
`COc1cc(C23OCC(Cc4cc5c(cc42)OCO5)C3CO)cc(OC)c1OC` (configuration not stated) was tested, and the TGI (NCI-H226 lung) was > 100 µM, the TGI (U251 CNS) was 43.8 µM and the TGI (HCT-15 colon) was > 100 µM. The TGI (HOP-62 NSCLC) was > 100 µM, the TGI (EKVX NSCLC) was > 100 µM and the TGI (SK-OV-3 ovarian) was > 28.8 µM. For the same compound, the TGI (M14 melanoma) was > 100000 nM, the TGI (SK-MEL-5 melanoma) was > 100 µM and the TGI (ACHN renal) was > 100 µM. For the same compound, the TGI (SW-620 colon) was > 100 µM, the TGI (HT29 colon) was > 100000 nM and the TGI (UACC-257 melanoma) was > 100 µM. The TGI (786-0 renal) was > 100 µM, the TGI (OVCAR-5 ovarian) was > 100 µM and the TGI (KM12 colon) was > 100 µM. The TGI (CAKI-1 renal) was > 100 µM, the TGI (UO-31 renal) was > 100 µM and the TGI (SK-MEL-2 melanoma) was > 100 µM. The TGI (HS 578T breast) was > 100 µM, the TGI (SF-539 CNS) was 26.2 µM and the TGI (COLO 205 colon) was > 100000 nM. The TGI (NCI-H23 lung) was > 100 µM, the TGI (HL-60(TB) leukemia) was > 50.1 µM and the TGI (NCI/ADR-RES ovarian) was 5.51 µM. For the same compound, the TGI (OVCAR-4 ovarian) was > 100 µM, the TGI (SNB-75 CNS) was > 100 µM and the TGI (NCI-H460 lung) was > 100 µM. For the same compound, the TGI (K-562 leukemia) was > 100 µM, the TGI (OVCAR-8 ovarian) was > 100 µM and the TGI (MOLT-4 leukemia) was > 100 µM. The TGI (MALME-3M melanoma) was > 100 µM, the TGI (T-47D breast) was > 100 µM and the TGI (BT-549 breast) was > 100 µM. The GI50 (UACC-62 melanoma) was 4.27 µM, the TGI (UACC-62 melanoma) was > 100 µM and the TGI (HCC-2998 colon) was 6.89 µM. For the same compound, the TGI (MDA-MB-231 breast) was > 84.4 µM, the TGI (RPMI-8226 leukemia) was > 100 µM and the TGI (SF-268 CNS) was > 100 µM. The TGI (LOX IMVI melanoma) was 13.2 µM, the TGI (HCT-116 colon) was > 100 µM and the TGI (SR leukemia) was > 100 µM. The TGI (A498 renal) was > 100 µM, the TGI (RXF 393 renal) was 8.03 µM and the TGI (TK-10 renal) was > 100 µM. The TGI (DU-145 prostate) was > 100 µM, the TGI (OVCAR-3 ovarian) was 5.8 µM and the TGI (A549 NSCLC) was > 100 µM. For the same compound, the TGI (SK-MEL-28 melanoma) was > 100 µM, the TGI (SF-295 CNS) was > 22500 nM and the TGI (HOP-92 NSCLC) was > 100 µM. The TGI (MCF7 breast) was > 100 µM, the TGI (CCRF-CEM leukemia) was > 100 µM and the TGI (PC-3 prostate) was > 100 µM. For the same compound, the TGI (IGROV1 ovarian) was > 100 µM, the TGI (NCI-H522 lung) was 5.11 µM and the TGI (SNB-19 CNS) was > 100 µM.
